Values of other authors in patent US20160354326A1, “LOCAL ANESTHETIC SOLUTION FOR DENTAL AND/OR CONTRAST MEDIA USE” (priority 2014, published 2016).

Conditions: dissolved in solution; sucrose standard = 1

Row | SMILES | sweetness perception rating (times the sweetness of sucrose in solution)
1 | O=C(CO)[C@@H](O)[C@H](O)[C@H](O)CO [fructose] | 1.7
2 | OC[C@H]1O[C@@](CO)(O[C@H]2O[C@H](CO)[C@@H](O)[C@H](O)[C@H]2O)[C@@H](O)[C@@H]1O [Sucrose] | 1
3 | OC[C@@H](O)[C@@H](O)[C@H](O)[C@@H](O)CO [Sorbitol] | 0.6
